1 molecule from paper PMC8482623 (Nature structural & molecular biology, 2020) can be followed below.

Assay [1] concerns the target T1, mBcs1 (full-length mouse Bcs1; mBcs1-His) (Mus musculus, UniProt Q9CZP5).
T1 sequence (Q9CZP5 1-418): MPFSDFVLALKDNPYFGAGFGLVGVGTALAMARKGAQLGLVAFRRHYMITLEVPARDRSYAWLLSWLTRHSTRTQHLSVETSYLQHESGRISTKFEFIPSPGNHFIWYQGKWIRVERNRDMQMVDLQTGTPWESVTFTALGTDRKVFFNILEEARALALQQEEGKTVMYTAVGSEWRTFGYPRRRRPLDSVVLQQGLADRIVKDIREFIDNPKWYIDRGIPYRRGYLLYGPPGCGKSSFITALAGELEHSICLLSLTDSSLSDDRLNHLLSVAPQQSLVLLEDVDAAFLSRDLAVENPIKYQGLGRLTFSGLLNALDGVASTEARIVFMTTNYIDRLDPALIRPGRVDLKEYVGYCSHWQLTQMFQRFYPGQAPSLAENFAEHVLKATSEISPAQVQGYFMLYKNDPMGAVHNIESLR
The assay is described as follows: blue-native PAGE band shift. In kind it is binding. The note with it: conformational change seen as band shift.

Another assay has as its target ΔNmBcs1 (Mus musculus, UniProt Q9CZP5). Nature of the assay: X-ray crystal structure, […] Å. The note with it: 2 mM AMP-PNP, 20 mM MgCl2, pH 7.5; nucleotide-binding site.

With `Nc1ncnc2c1ncn2[C@@H]1O[C@H](COP(=O)(O)OP(=O)(O)NP(=O)(O)O)[C@@H](O)[C@H]1O` [AMP-PNP], in assay [1], the “blue-native PAGE band shift” value is reported as “incubation of ATPγS or AMP-PNP (nonhydrolyzable ATP) caused a shift in the protein band”. For the same molecule, the “X-ray crystal structure, 2.2 Å” value on ΔNmBcs1 is given as “yielding a heptameric structure with clearly visible bound AMP-PNP”.
